# From patent US7902354B2, “Lapachone compounds and methods of use thereof” (ArQule, Inc., priority 2006, dated 2011)
row,SMILES,melting point
1,O=C1C(=O)c2ccccc2C2=C1SCC1(CCCN(C(=O)Oc3cccc(C(F)(F)F)c3)CC1)O2 (centres unmarked),111 to 114 °C
2,O=C1C(=O)c2ccccc2C2=C1SCC1(CCCN(C(=O)Oc3cccc(C(F)(F)F)c3)C1)O2 (centres unmarked),95 to 99 °C
3,COc1ccc2c(c1)C(=O)C(=O)C1=C2OC2(CCN(C(=O)Oc3cccc(C(F)(F)F)c3)CC2)CS1,233 to 234 °C
4,O=C1C(=O)c2ccc(-c3ccccc3)cc2C2=C1SCC1(CCN(C(=O)Oc3cccc(C(F)(F)F)c3)CC1)O2,188 to 190 °C
5,O=C1C(=O)c2ccccc2C2=C1SCC1(CCN(C3CCN(C(=O)Oc4cccc(C(F)(F)F)c4)CC3)CC1)O2,70 to 73 °C
6,COc1ccc2c(c1)C1=C(SCC3(CCN(Cc4ccc(F)cc4)CC3)O1)C(=O)C2=O,196 to 197 °C
7,O=C1C(=O)c2ccc(-c3ccccc3)cc2C2=C1SCC1(CCN(Cc3ccc(F)cc3)CC1)O2,197 to 198 °C
8,O=C1C(=O)c2ccccc2C2=C1SCC1(CCN(CCCCc3ccccc3)CC1)O2,145 to 147 °C
9,O=C1C(=O)c2ccccc2C2=C1SCC1(CCN(CCCOc3ccc(Cl)cc3)CC1)O2,130 to 132 °C
10,O=C1C(=O)c2ccccc2C2=C1SCC1(CCN(CCCOc3ccc(F)cc3)CC1)O2,164 to 165 °C
11,COc1ccc2c(c1)C(=O)C(=O)C1=C2OC2(CCN(Cc3ccc(F)cc3)CC2)CS1,219 to 221 °C
12,O=C1C(=O)c2ccc(Br)cc2C2=C1SCC1(CCN(Cc3ccc(F)cc3)CC1)O2,210 to 211 °C
13,O=C1C(=O)c2ccccc2C2=C1SCC1(CCN(C3CCCC3O)CC1)O2 (centres unmarked),110 to 113 °C
14,CC(C)(C)c1ccc(OC[C@@H](O)CN2CCC3(CC2)CSC2=C(O3)c3cc(Br)ccc3C(=O)C2=O)cc1,150 to 152 °C
15,CC(C)(C)c1ccc(OC[C@@H](O)CN2CCC3(CC2)CSC2=C(O3)c3cc(F)ccc3C(=O)C2=O)cc1,114 to 116 °C
16,O=C1C(=O)c2ccccc2C2=C1SCC1(CCCN(C[C@H](O)Cc3ccccc3)C1)O2 (some centres unmarked),65 to 67 °C
17,O=C1C(=O)c2ccccc2C2=C1SCC1(CCCN(C[C@@H](O)Cc3ccccc3)C1)O2 (some centres unmarked),59 to 60 °C
18,CC(C)(C)c1ccc(OC[C@@H](O)CN2CCC(N3CCC4(CC3)CSC3=C(O4)c4ccccc4C(=O)C3=O)CC2)cc1,190 to 193 °C
19,CC(C)(C)c1ccc(OC[C@H](O)CN2CCC3(CC2)CSC2=C(O3)c3cc(-c4ccccc4)ccc3C(=O)C2=O)cc1,94 to 97 °C
20,COc1ccc2c(c1)C(=O)C(=O)C1=C2OC2(CCN(C[C@@H](O)COc3ccc(C(C)(C)C)cc3)CC2)CS1,188 to 190 °C
21,CC(C)(C)c1ccc(OC[C@@H](O)CN2CCC3(CC2)CSC2=C(O3)c3cc(-c4ccccc4)ccc3C(=O)C2=O)cc1,151 to 152 °C
22,CC(C)(C)c1ccc(OC[C@@H](O)CN2CCC3(CC2)CSC2=C(O3)c3cc(N4CCOCC4)ccc3C(=O)C2=O)cc1,107 to 109 °C
23,O=C1C(=O)c2ccc(Br)cc2C2=C1SCC1(CCN(C[C@H](O)COc3ccc4cc(Br)ccc4c3)CC1)O2,104 to 105 °C
24,O=C1C(=O)c2ccc(-c3ccccc3)cc2C2=C1SCC1(CCN(C[C@H](O)COc3ccc(F)cc3)CC1)O2,173 to 175 °C
25,O=C1C(=O)c2ccc(-c3ccccc3)cc2C2=C1SCC1(CCN(C[C@H](O)COc3ccc(Cl)cc3)CC1)O2,93 to 98 °C
26,COc1ccc2c(c1)C1=C(SCC3(CCN(C[C@H](O)COc4ccc(C(C)(C)C)cc4)CC3)O1)C(=O)C2=O,153 to 156 °C
27,O=C1C(=O)c2ccccc2C2=C1SCC1(CCN(c3cc(Cl)ncn3)CC1)O2,172 to 174 °C

row,SMILES,melting point
1,Cc1ccc(S(=O)(=O)NC(=O)N2CCC3(CC2)CSC2=C(O3)c3ccccc3C(=O)C2=O)cc1,153 to 158 °C
2,CC(C)(C)OC(=O)N1CCC2(CC1)CSC1=C(O2)c2cc(-c3cccc(C(F)(F)F)c3)ccc2C(=O)C1=O,231 to 233 °C
3,CC(C)(C)OC(=O)N1CCC2(CC1)CSC1=C(O2)c2cc(-c3cccnc3)ccc2C(=O)C1=O,217 to 219 °C
4,CC(C)(C)OC(=O)N1CCC2(CC1)CSC1=C(O2)c2cc(-c3ccncc3)ccc2C(=O)C1=O,225 to 227 °C
5,CC(C)(C)OC(=O)N1CCC2(CC1)CSC1=C(O2)c2cc(N3CCOCC3)ccc2C(=O)C1=O,243 to 244 °C
6,Cl.O=C1C(=O)c2ccccc2C2=C1SCC1(CCN(C(=O)C3CCNCC3)CC1)O2,94 to 100 °C
7,Cl.O=C1C(=O)c2ccccc2C2=C1SCC1(CCN(C(=O)CC3CCNCC3)CC1)O2,200 to 202 °C
8,CC(C)(C)OC(=O)NC1CCC2(CC1)CSC1=C(O2)c2ccccc2C(=O)C1=O (centres unmarked),224 to 225 °C
9,Cl.NC1CCC2(CC1)CSC1=C(O2)c2ccccc2C(=O)C1=O (centres unmarked),256 to 257 °C
10,O=C1C(=O)c2ccc(N3CCCCC3)cc2C2=C1SCC1(CCNCC1)O2,300 °C (dec.)
11,O=C1C(=O)c2ccc(-c3ccncc3)cc2C2=C1SCC1(CCNCC1)O2,223 to 228 °C
12,O=C1C(=O)c2ccc(-c3cccnc3)cc2C2=C1SCC1(CCNCC1)O2,213 to 215 °C
13,O=C1C(=O)c2ccc(-c3cccc(C(F)(F)F)c3)cc2C2=C1SCC1(CCNCC1)O2,199 to 203 °C
14,O=C1C(=O)c2ccc(-c3ccc(C(F)(F)F)cc3)cc2C2=C1SCC1(CCNCC1)O2,190 to 240 °C
15,O=C1C(=O)c2ccc(-c3ccccc3)cc2C2=C1SCC1(CCNCC1)O2,83 to 87 °C
16,O=C1C(=O)c2ccccc2C2=C1SCC1(CCN(C(=O)c3ccc(-n4cccn4)cc3)CC1)O2,299 to 300 °C
17,O=C1C(=O)c2ccccc2C2=C1SCC1(CCN(C(=O)c3cccc([N+](=O)[O-])c3)CC1)O2,160 to 162 °C
18,O=C1C(=O)c2ccccc2C2=C1SCC1(CCCN(C(=O)c3cccc(Cl)c3)CC1)O2 (centres unmarked),98 to 100 °C
19,COc1ccc2c(c1)C(=O)C(=O)C1=C2OC2(CCN(C(=O)c3cccc(Cl)c3)CC2)CS1,130 °C (dec.)
20,O=C1C(=O)c2ccc(-c3cccnc3)cc2C2=C1SCC1(CCN(C(=O)c3cccc(Cl)c3)CC1)O2,240 to 242 °C
21,O=C1C(=O)c2ccc(-c3ccncc3)cc2C2=C1SCC1(CCN(C(=O)c3cccc(Cl)c3)CC1)O2,265 to 267 °C
22,O=C1C(=O)c2ccc(Cl)cc2C2=C1SCC1(CCN(C(=O)c3cccc(Cl)c3)CC1)O2,125 to 130 °C
23,O=C1C(=O)c2ccc(Br)cc2C2=C1SCC1(CCN(C(=O)c3cccc(Cl)c3)CC1)O2,135 to 140 °C
24,COc1ccc2c(c1)C1=C(SCC3(CCN(C(=O)c4cccc(Cl)c4)CC3)O1)C(=O)C2=O,125 to 127 °C
25,O=C1C(=O)c2ccccc2C2=C1SCC1(CCN(C(=O)c3nc4ccccc4[nH]3)CC1)O2,266 to 268 °C
26,O=C1C(=O)c2ccc(Br)cc2C2=C1SCC1(CCN(C(=O)Oc3cccc(C(F)(F)F)c3)CC1)O2,210 to 211 °C

# Further lines, results first:
row,melting point,SMILES
1,155 to 159 °C,O=C1C(=O)c2ccccc2C2=C1SCC1(CCN(CC3CCCO3)CC1)O2 (centres unmarked)
2,135 to 137 °C,O=C1C(=O)c2ccccc2C2=C1SCC1(CCN(CC3CCCCO3)CC1)O2 (centres unmarked)
3,104 to 107 °C,O=C1C(=O)c2ccccc2C2=C1SCC1(CCN(Cc3ccc(F)cc3F)CC1)O2
4,197 to 198 °C,CC(C)N1CCC2(CC1)CSC1=C(O2)c2ccccc2C(=O)C1=O
5,117 to 118 °C,O=C1C(=O)c2ccccc2C2=C1SCC1(CCN(CCc3ccccc3)CC1)O2
6,180 to 182 °C,CCC(O)CN1CCC2(CC1)CSC1=C(O2)c2ccccc2C(=O)C1=O (centres unmarked)
7,97 to 99 °C,CC(C)OCC(O)CN1CCC2(CC1)CSC1=C(O2)c2ccccc2C(=O)C1=O (centres unmarked)
8,195 to 196 °C,O=C1C(=O)c2ccccc2C2=C1SCC1(CCN(CC(O)Cc3ccc(Cl)cc3)CC1)O2 (centres unmarked)
9,82 to 83 °C,O=C1C(=O)c2ccc(Br)cc2C2=C1SCC1(CCN(C[C@@H](O)Cc3ccccc3)CC1)O2
10,92 to 96 °C,O=C1C(=O)c2ccc(Cl)cc2C2=C1SCC1(CCN(C[C@@H](O)Cc3ccccc3)CC1)O2
11,92 to 93 °C,O=C1C(=O)c2ccc(Cl)cc2C2=C1SCC1(CCN(C[C@H](O)Cc3ccccc3)CC1)O2
12,146 to 147 °C,COc1ccc2c(c1)C(=O)C(=O)C1=C2OC2(CCN(C[C@@H](O)Cc3ccccc3)CC2)CS1
13,145 to 147 °C,COc1ccc2c(c1)C(=O)C(=O)C1=C2OC2(CCN(C[C@H](O)Cc3ccccc3)CC2)CS1
14,189 to 191 °C,COc1ccc2c(c1)C(=O)C(=O)C1=C2OC2(CCN(C[C@H](O)COc3ccc(Cl)cc3)CC2)CS1
15,189 to 191 °C,COc1ccc2c(c1)C(=O)C(=O)C1=C2OC2(CCN(C[C@H](O)COc3ccc(F)cc3)CC2)CS1
16,106 °C,COc1ccc2c(c1)C1=C(SCC3(CCN(C[C@H](O)Cc4ccccc4)CC3)O1)C(=O)C2=O
17,110 °C,COc1ccc2c(c1)C1=C(SCC3(CCN(C[C@@H](O)Cc4ccccc4)CC3)O1)C(=O)C2=O
18,109 to 110 °C,COc1ccc2c(c1)C1=C(SCC3(CCN(C[C@H](O)COc4ccc(Cl)cc4)CC3)O1)C(=O)C2=O
19,122 to 124 °C,COC(=O)Cc1ccc(OC[C@H](O)CN2CCC3(CC2)CSC2=C(O3)c3ccccc3C(=O)C2=O)cc1
20,183 to 184 °C,O=C1C(=O)c2ccccc2C2=C1SCC1(CCN(C[C@H](O)COc3ccc4cc(Br)ccc4c3)CC1)O2
21,76 to 77 °C,O=C1C(=O)c2ccc(F)cc2C2=C1SCC1(CCN(C[C@H](O)Cc3ccccc3)CC1)O2
22,164 to 167 °C,O=C1C(=O)c2ccccc2C2=C1SCC1(CCN(C[C@H](O)COc3ccc4ccccc4c3)CC1)O2
23,82 to 84 °C,O=C1C(=O)c2ccc(Br)cc2C2=C1SCC1(CCN(C[C@H](O)Cc3ccccc3)CC1)O2
24,194 to 195 °C,O=C1C(=O)c2ccccc2C2=C1SCC1(CCCCC1)O2
25,195 to 197 °C,O=C1C(=O)c2ccccc2C2=C1SCC1(CCOCC1)O2
26,221 to 223 °C,O=C1C(=O)c2ccccc2C2=C1SCC1(CCSCC1)O2
27,218 to 220 °C,NC(=O)N1CCC2(CC1)CSC1=C(O2)c2ccccc2C(=O)C1=O
